Measurements as given in publication PMC8468663, “Co-Spray Dried Nafamostat Mesylate with Lecithin and Mannitol as Respirable Microparticles for Targeted Pulmonary Delivery: Pharmacokinetics and Lung Distribution in Rats” (Pharmaceutics, 2021).
Structures can show the parent of a compound that is named as a salt.

How the values were obtained:
in vivo = test: in vivo; parameters: species or system Sprague–Dawley rats; conditions: rat, 10 mg/kg; for half-life: T½
Method: The Chungbuk National University Institutional Animal Care and Use Committee approved the experimental protocols and animal care methods used in this study. The first in vivo experiment was a pharmacokinetic study to determine the efficacy of NFM based on the route of administration and to determine the effect of lecithin as a stabilizer. After preparing a 0.5% mannitol solution (w/v), NFM was added at a concentration of 25 mg mL^−1 to prepare solution A. In addition, Tween 80 was added to solution A at 1% (w/v), plus lecithin, which was added at a concentration of 25 mg mL^−1, and stirred to evenly disperse it to produce solution B. Each experiment was carried out using a male SD rat (8 weeks old, 230–250 g) in three groups of 16 animals each. The SD rats were fed a commercial pellet diet and fresh water and housed at room temperature (23 ± 1 °C) with a relative humidity of 50 ± 10%, and a 12 h light and dark cycle. First, the intravenous (IV) group was administered a 100 μL dose of solution A (10 mg·kg^−^1) intravenously through the lateral tail vein. Second, a 100 μL dose of solution A (10 mg kg^−^1) was administered by intratracheal instillation (ITI) to the intratracheal instillation-1 (ITI-1) group. Finally, the ITI-2 group was administered a 100 μL dose of solution B (10 mg·kg^−^1). For the analysis of plasma concentration, blood was collected via the orbital vein 1, 5, 10, 30, and 60 min after administration to each group (n = 4). Blood was collected in a heparin tube and gently shaken. Plasma was immediately separated from the blood samples by centrifugation at 3000 rpm for 2 min. After administration to each group (n = 12), 4 rats were sacrificed at 10, 30, and 60 min. BALF samples were obtained by injecting and extracting 5 mL DW into the lungs of the rats. Lung tissues were placed in 10 mL DW and homogenized at 18,000 rpm for 3 min using a homogenizer. Acetonitrile (ACN) was added to plasma, BALF, and lung tissue samples in a ratio of 1:1 (v/v) to precipitate the proteins, and the sample solutions were centrifuged at 18,000 rpm for 5 min to obtain a supernatant. The supernatant was quantified by HPLC analysis. A second in vivo experiment was performed to determine the efficacy of NFM microparticles in a DPI formulation, focusing on the lung lumen and tissue. First, the solution group was administered a solution at a dose of 0.25 mg NFM per rat by ITI (1 mg·kg^−^1). Second, the SD-NM group was treated using a dry powder insufflator for the intratracheal administration of the SD-NM in the form of DPI at a dose of 0.25 mg of NFM per rat (1 mg·kg^−^1). Finally, the SD-NLM group was administered an SD-NLM at a dose of 0.25 mg of NFM per rat (1 mg kg^−^1) using a dry powder insufflator. BALF and lung tissue samples were prepared using the same procedure as that used for the in vivo study described above. The samples were quantified by HPLC analysis.

[1] = test system: SARS-CoV-2 entry into host cells; parameters: method as in PMID 32312781; conditions: cited from earlier work
[2] = cited from earlier work
[3] = male, Sprague-Dawley, Amount of NFM in BALF
[4] = male, Sprague-Dawley, inhaled or intranasal

N=C(N)c1ccc2cc(OC(=O)c3ccc(N=C(N)N)cc3)ccc2c1 [NFM, Nafamostat mesylate]
Amount of NFM in BALF (in vivo; male, Sprague-Dawley, 10 min): 4.48 µg/mL
Amount of NFM in BALF (in vivo; male, Sprague-Dawley, 30 min): 1.69 µg/mL
concentration at 10 min (in vivo; [3]): 2900 ng/mL
concentration at 30 min (in vivo; [3]): 1690 ng/mL
Tmax (in vivo; male, Sprague-Dawley, Tmax): 5 min
Cmax (in vivo; [4]): 22900 ± 4640 ng/mL
Tmax (in vivo; [4]): 4.0 ± 1.00 min
T½ (in vivo; [4]): 28.6 ± 3.51 min
AUC(0-inf) (in vivo; [4]): 11200 ng·h/mL
Cmax (in vivo; male, Sprague-Dawley, inhaled or intranasal, Cmax): 25900 ± 4230 ng/mL
half-life (in vivo; [4]): 26.7 ± 2.6 min
AUC(inf) (in vivo; male, Sprague-Dawley, iv): 436.1 ± 31.59 µg·min/mL
AUC(0-inf) (in vivo; male, Sprague-Dawley, iv): 7270 ng·h/mL
concentration at 10 min (in vivo; male, Sprague-Dawley, iv, Amount of NFM in BALF): 960 ng/mL
Cmax (in vivo; male, Sprague-Dawley, iv, Cmax): 43700 ± 7980 ng/mL
half-life (in vivo; male, Sprague-Dawley, iv): 13.2 ± 0.52 min
Amount of NFM in BALF (in vivo): still had remaining NFM in the BALF
Amount of NFM in lung tissue (in vivo): some residual drug
Amount of NFM in BALF (in vivo; iv): There was no NFM in the BALF
Half-life of ITI-1 and ITI-2 groups relative to IV group (in vivo; iv): approximately twice
EC50, inhibition of SARS-CoV-2 entry into host cells [1]: low nanomolar range
Efficiency of inhibition of SARS-CoV-2 entry relative to camostat mesylate [1]: approximately 15 fold
Half-life in human blood [2]: approximately 3 min
